Results as given in ChEMBL document CHEMBL3044898, “Alkoxyphenyl methanesulfonamides: synthesis, anti-inflammatory effect, and docking studies” (Med Chem Res, 2012).

Assays:
[1] = tested on: Rattus norvegicus; assay: Anti-inflammatory activity in po dosed Rattus norvegicus Wistar (rat) assessed as inhibition of carrageenan-induced paw edema administered 30 min post carrageenan challenge measured at 5 hr; format: functional
[2] = tested on: Rattus norvegicus; assay: Anti-inflammatory activity in Rattus norvegicus Wistar (rat) assessed as inhibition of carrageenan-induced paw edema at 75 mg/kg, po administered 30 min post carrageenan challenge measured at 5 hr relative to control; format: functional
[3] = tested on: Rattus norvegicus; assay: Anti-inflammatory activity in Rattus norvegicus Wistar (rat) assessed as inhibition of carrageenan-induced paw edema at 25 mg/kg, po administered 30 min post carrageenan challenge measured at 5 hr relative to control; format: functional
[4] = tested on: Rattus norvegicus; assay: Anti-inflammatory activity in Rattus norvegicus Wistar (rat) assessed as inhibition of carrageenan-induced paw edema at 5 mg/kg, po administered 30 min post carrageenan challenge measured at 5 hr relative to control; format: functional
[5] = tested on: Rattus norvegicus; assay: Ulcerogenic activity in Rattus norvegicus Wistar (rat) assessed as length of lesion at 75 mg/kg, po after 6 hr (reference value: 0 mm); format: toxicity, organism-based; parameters: dose 75 mg/kg, route oral; details: in vivo
[6] = tested on: Rattus norvegicus; assay: Ulcerogenic activity in Rattus norvegicus Wistar (rat) assessed as length of lesion at 25 mg/kg, po after 6 hr (reference value: 0 mm); format: toxicity, organism-based; parameters: dose 25 mg/kg, route oral; details: in vivo
[7] = tested on: Rattus norvegicus; assay: Ulcerogenic activity in Rattus norvegicus Wistar (rat) assessed as length of lesion at 5 mg/kg, po after 6 hr (reference value: 0 mm); format: toxicity, organism-based; parameters: dose 5 mg/kg, route oral; details: in vivo
[8] = tested on: Rattus norvegicus; assay: Anti-inflammatory activity in Rattus norvegicus Wistar (rat) assessed as inhibition of carrageenan-induced paw edema at 100 mg/kg, po administered 30 min post carrageenan challenge measured at 5 hr relative to control; format: functional
[9] = tested on: Rattus norvegicus; assay: Ulcerogenic activity in Rattus norvegicus Wistar (rat) assessed as length of lesion at 100 mg/kg, po after 6 hr (reference value: 0 mm); format: toxicity, organism-based; parameters: dose 100 mg/kg, route oral; details: in vivo
[10] = tested on: Rattus norvegicus; assay: Anti-inflammatory activity in Rattus norvegicus Wistar (rat) assessed as inhibition of carrageenan-induced paw edema at 30 mg/kg, po administered 30 min post carrageenan challenge measured at 5 hr relative to control; format: functional
[11] = tested on: Rattus norvegicus; assay: Ulcerogenic activity in Rattus norvegicus Wistar (rat) assessed as length of lesion at 30 mg/kg, po after 6 hr (reference value: 0 mm); format: toxicity, organism-based; parameters: dose 30 mg/kg, route oral; details: in vivo
[12] = tested on: Rattus norvegicus; assay: Ulcerogenic activity in Rattus norvegicus Wistar (rat) assessed as length of lesion at 10 mg/kg, po after 6 hr (reference value: 0 mm); format: toxicity, organism-based; parameters: dose 10 mg/kg, route oral; details: in vivo

SMILES | ED50 [1] | inhibition in vivo at 75 mg/kg [2] | inhibition in vivo at 25 mg/kg [3] | inhibition in vivo at 5 mg/kg [4] | Activity [5] | Activity [6] | Activity [7] | inhibition in vivo at 100 mg/kg [8] | Activity [9] | inhibition in vivo at 30 mg/kg [10] | Activity [11] | Activity [12]
CCCCCCCCOc1cc(C(C)=O)ccc1NS(C)(=O)=O | 2.36 mg/kg | 69.9% | 62.5% | 51.5% | 2 mm | 1 mm | 0 mm |  |  |  |  | 
CCOc1cc(C(C)=O)ccc1NS(C)(=O)=O | 1.8 mg/kg | 66.2% | 54.6% | 44% | 1 mm | 0 mm | 0 mm |  |  |  |  | 
CCCOc1cc(C(C)=O)ccc1NS(C)(=O)=O | 2.25 mg/kg | 67.2% | 62.1% | 56.6% | 1 mm | 1 mm | 0 mm |  |  |  |  | 
CC(=O)c1ccc(NS(C)(=O)=O)c(O)c1 |  |  |  |  |  |  |  | 15.9% | 1 mm |  |  | 
CS(=O)(=O)c1ccc(C2=C(c3ccccc3)C(=O)OC2)cc1 [ROFECOXIB] | 2.61 mg/kg |  |  |  |  |  |  |  |  | 82.8% | 2 mm | 
CC(=O)c1ccc(NS(C)(=O)=O)c(OC2CCCC2)c1 | 2.31 mg/kg | 69.2% | 57.4% | 58.7% | 1 mm | 0 mm | 0 mm |  |  |  |  | 
COc1ccc2c(c1)c(CC(=O)O)c(C)n2C(=O)c1ccc(Cl)cc1 [INDOMETHACIN] | 2.2 mg/kg |  |  |  |  |  |  |  |  |  |  | 19.4 mm
